Measured values reported in patent US4210648A, “II-Aminoacyl-5,11-dihydro-6H-pyrido(2,3-B) (1,4)benzodiazepin-6-ones and salts thereof” (Boehringer Ingelheim GmbH, priority 1977, dated 1980).

Tests used:
[1] = system: stress ulcers; assay: inhibiting effect on the formation of stress ulcers in rats; format: in vivo
Method: (§1) The compounds were examined with regard to their inhibiting effect on the formation of stress ulcers in rats and their spasmolytic effect, related to atropine, with consideration of their acute toxicity.
The inhibiting effect on the formation of stress ulcers in rats was determined according to the method of K. Takagi and S. Okabe, Jap.Journ.Pharmac. 18, pp. 9 to 18 (1968). Fed female rats with a body weight between 220 and 260 gm were individually put into small wire cages and were subsequently kept vertically submerged in a water bath which was kept constant at a temperature of 23° C. for 16 hours, so that only the heads and the breastbones of the animals were above the water surface. The test compounds were administered perorally 5 to 10 minutes before. With each substance five animals were treated. 1 ml of a 0.9% physiological sodium chloride solution or 1 ml of a 1% tylose solution was administered to the control animals in the same way. After 18 hours the animals were killed by an overdose of ethyl chloride, the stomachs were excised, cut along the big curvature and spread on a cork plate. The evaluation was carried out according to the methods of Marazzi-Uberti and Turba, Med. Exp. 4, pp. 284 to 292 (1961), and Takagi and Okabe (supra).

[2] = system: guinea pig colon; assay: spasmolytic effect in vitro on the guinea pig colon (acetylcholine-induced spasms; comparison atropinesulfate); details: relative to atropine = 1
Method: as §1
(§2) The spasmolytic effect was determined in vitro on the guinea pig colon, using the experimental arrangement according to R. Magnus, Pflugers Archiv, 102, pp. 123 (1904). Acetylcholine was taken to induce spasms, the substance for comparison was atropinesulfate. The spasticum was administered one minute before the administration of the spasmolytic substance, and the spasmolytic was allowed to take effect for 1 minute. […] The acute toxicity was determined after peroral administration of the test substance to fasted white mice with a body weight of 18 to 20 gm. The observation period was 14 days. For each dosage a group of six mice was used.

[3] = acute toxicity after peroral administration to mice; format: in vivo; details: in vivo, po, mouse, observation 14 days
Method: as §2

[4] = system: mouse; assay: as above; format: in vivo
Method: as §2

Compound	Ulcer-inhibition in % (rat) after peroral administr. of 12.5 mg/kg [1]	Ulcer-inhibition in % (rat) after peroral administr. of 25 mg/kg [1]	Ulcer-inhibition in % (rat) after peroral administr. of 50 mg/kg [1]	Spasmolysis (acetylcholine) with regard to Atropin = 1 [2]	LD50 at 336 h [3]	animals died at 1500 mg/kg [4]	animals died at 1000 mg/kg [4]	animals died at 2000 mg/kg ([4]; 2000 mg/kg)
CCN1CCCC1CNCC(=O)N1c2ccccc2C(=O)N(C)c2cccnc21 (stereo not drawn) [A, 11-{[(1-Ethyl-2-pyrrolidinyl)methylamino]acetyl}-5,11-dihydro-5-methyl-6H-pyrido[2,3-b][1,4]benzodiazepin-6-one]	90%	90%	95%	1/250	~1500 mg/kg	2 out of 4	–	–
COC1CCN(CC(=O)N2c3ccccc3C(=O)Nc3cccnc32)CC1 [B, 5,11-Dihydro-11-[(4-methoxypiperidino)acetyl]-6H-pyrido [2,3-b]-[1,4]benzodiazepin-6-one]	53%	79%	89%	1/125	> 1000 mg/kg	–	2 out of 5	–
CC1CCCCN1CCC(=O)N1c2ccccc2C(=O)Nc2cccnc21 (stereo not drawn) [C, 5,11-Dihydro-11-[3-(2-methylpiperidino)propionyl]-6H-pyrido-[2,3-b][1,4]benzodiazepin-6-one]	79%	84%	95%	1/50	> 1000 mg/kg	–	1 out of 5	–
O=C1Nc2cccnc2N(C(=O)CCN2CCCCC2)c2ccccc21 [D, 5,11-Dihydro-11-(3-piperidinopropionyl)-6H-pyrido [2,3-b][1,4]-benzodiazepin-6-one]	58%	69%	84%	1/125	~2000 mg/kg	–	–	3 out of 5
O=C1Nc2cccnc2N(C(=O)CCCN2CCCC2)c2ccccc21 [E, 5,11-Dihydro-11-(4-pyrrolidino-butyryl)-6H-pyrido[2,3-b][1,4]-benzodiazepin-6-one]	18%	58%	79%	1/190	> 1500 mg/kg	1 out of 6	–	–
